These results are taken from US6534524B1, “Indazole compounds and pharmaceutical compositions for inhibiting protein kinases, and methods for their use” (Agouron Pharmaceuticals, Inc., priority 1999, dated 2003).

The assay concerns human umbilical vein endothelial cells (HUVEC). The assay can be described thus: HUVEC proliferation assay (VEGF-stimulated, MTT). Type of assay: cell-based. As to conditions: Library III; HUVEC proliferation; nominal concentration of 0.5 nM; crude reaction mixtures.
With `O=C(Nc1ccc(F)cc1)c1ccccc1Sc1ccc2c(/C=C/c3ccccn3)n[nH]c2c1`, the “% inhibition” value is recorded as −1%.

Turning to `Cc1ccc2ccccc2c1NC(=O)c1ccccc1Sc1ccc2c(/C=C/c3ccccn3)n[nH]c2c1`, the “% inhibition” value is on record as −19%. With `C=C(C)c1ccccc1NC(=O)c1ccccc1Sc1ccc2c(/C=C/c3ccccn3)n[nH]c2c1`, the “% inhibition” value is on record as −41%. `CC(C)(C)c1nnc(NC(=O)c2ccccc2Sc2ccc3c(/C=C/c4ccccn4)n[nH]c3c2)s1`: the “% inhibition” value is given as −28%.

On to `Cc1nnc(NC(=O)c2ccccc2Sc2ccc3c(/C=C/c4ccccn4)n[nH]c3c2)s1`, for which the “% inhibition” value was −20%. As to `O=C(Nc1nnc(C2CC2)s1)c1ccccc1Sc1ccc2c(/C=C/c3ccccn3)n[nH]c2c1`, the “% inhibition” value is recorded as −20%. With `O=C(NCC1CCCCC1)c1ccccc1Sc1ccc2c(/C=C/c3ccccn3)n[nH]c2c1`, the “% inhibition” value was determined as 3%.

Consider `O=C(NC1CCCCC1C1CCCCC1)c1ccccc1Sc1ccc2c(/C=C/c3ccccn3)n[nH]c2c1` (stereo not shown), for which the “% inhibition” value was found to be 11%. Turning to `CCOc1ccccc1CCNC(=O)c1ccccc1Sc1ccc2c(/C=C/c3ccccn3)n[nH]c2c1`, the “% inhibition” value is recorded as 1%.

Take `COc1ccc(OC)c(NC(=O)c2ccccc2Sc2ccc3c(/C=C/c4ccccn4)n[nH]c3c2)c1`: the “% inhibition” value is −5%. In the case of `COc1cc(NC(=O)c2ccccc2Sc2ccc3c(/C=C/c4ccccn4)n[nH]c3c2)cc(OC)c1`, the “% inhibition” value is −60%.

As to `COC(=O)c1ccc(NC(=O)c2ccccc2Sc2ccc3c(/C=C/c4ccccn4)n[nH]c3c2)c(C)c1`, the “% inhibition” value was −46%.

Regarding `O=C(NCC(F)(F)C(F)(F)F)c1ccccc1Sc1ccc2c(/C=C/c3ccccn3)n[nH]c2c1`, the “% inhibition” value is on record as −22%. With `N#CC(NC(=O)c1ccccc1Sc1ccc2c(/C=C/c3ccccn3)n[nH]c2c1)c1ccc(F)cc1` (stereo not shown) the figure was −20%; with `O=C(NCc1ccc(F)cc1Cl)c1ccccc1Sc1ccc2c(/C=C/c3ccccn3)n[nH]c2c1`, −7%.

Consider `CCCCC(CO)NC(=O)c1ccccc1Sc1ccc2c(/C=C/c3ccccn3)n[nH]c2c1` (stereo not shown), for which the “% inhibition” value is recorded as −28%. Regarding `O=C(Nc1ccc(O)c(F)c1)c1ccccc1Sc1ccc2c(/C=C/c3ccccn3)n[nH]c2c1`, the “% inhibition” value is reported as −10%.

With `O=C(NC(CO)CC1CCCCC1)c1ccccc1Sc1ccc2c(C=Cc3ccccn3)n[nH]c2c1` (stereo not shown), the “% inhibition” value came out at 13%. For the compound `CC(C)(C)C(CO)NC(=O)c1ccccc1Sc1ccc2c(C=Cc3ccccn3)n[nH]c2c1` (stereo not shown), the “% inhibition” value is given as −7%. Consider `O=C(Nc1cccc(-c2ccccc2)c1)c1ccccc1Sc1ccc2c(/C=C/c3ccccn3)n[nH]c2c1`, for which the “% inhibition” value is −13%. In the case of `CSCCC(CO)NC(=O)c1ccccc1Sc1ccc2c(/C=C/c3ccccn3)n[nH]c2c1` (stereo not shown), the “% inhibition” value was −45%. The figure for `CCC(C)C(CO)NC(=O)c1ccccc1Sc1ccc2c(C=Cc3ccccn3)n[nH]c2c1` (stereo not shown) is −40%; for `CCOC(CCCNC(=O)c1ccccc1Sc1ccc2c(/C=C/c3ccccn3)n[nH]c2c1)OCC` it is −11%; for `O=C(NCCSCCO)c1ccccc1Sc1ccc2c(/C=C/c3ccccn3)n[nH]c2c1` it is −31%. Take `CC(C)c1ccccc1NC(=O)c1ccccc1Sc1ccc2c(/C=C/c3ccccn3)n[nH]c2c1`: the “% inhibition” value is −30%.

For `CSCCC(CO)NC(=O)c1ccccc1Sc1ccc2c(C=Cc3ccccn3)n[nH]c2c1` (stereo not shown), the “% inhibition” value was −11%. For `CC(C)(CO)NC(=O)c1ccccc1Sc1ccc2c(/C=C/c3ccccn3)n[nH]c2c1`, the “% inhibition” value is −2%. For `CSCCNC(=O)c1ccccc1Sc1ccc2c(/C=C/c3ccccn3)n[nH]c2c1`, the “% inhibition” value was 18%. The figure for `CCSCCNC(=O)c1ccccc1Sc1ccc2c(/C=C/c3ccccn3)n[nH]c2c1` is 7%. For the compound `CCCCN(CCCC)CCNC(=O)c1ccccc1Sc1ccc2c(/C=C/c3ccccn3)n[nH]c2c1`, the “% inhibition” value stood at 1%. Consider `COC(OC)C(C)NC(=O)c1ccccc1Sc1ccc2c(/C=C/c3ccccn3)n[nH]c2c1` (stereo not shown), for which the “% inhibition” value was found to be 0%. Regarding `O=C(NC(CO)(CO)CO)c1ccccc1Sc1ccc2c(/C=C/c3ccccn3)n[nH]c2c1`, the “% inhibition” value amounted to 14%.

Turning to `CCC(CO)(CO)NC(=O)c1ccccc1Sc1ccc2c(/C=C/c3ccccn3)n[nH]c2c1`, the “% inhibition” value is listed as 61%.

As to `CCC(C)C(NC(=O)c1ccccc1Sc1ccc2c(C=Cc3ccccn3)n[nH]c2c1)C(=O)NO` (stereo not shown), the “% inhibition” value came to 9%. On to `O=C(Nc1ccc2ncccc2c1)c1ccccc1Sc1ccc2c(/C=C/c3ccccn3)n[nH]c2c1`, for which the “% inhibition” value came to 1%. Turning to `O=C(Nc1ccccc1-c1ccccc1)c1ccccc1Sc1ccc2c(/C=C/c3ccccn3)n[nH]c2c1`, the “% inhibition” value amounted to 1%. For the compound `O=C(Nc1cccc(C(F)(F)F)c1)c1ccccc1Sc1ccc2c(/C=C/c3ccccn3)n[nH]c2c1`, the “% inhibition” value was 4%. For the compound `O=C(Nc1cccc2cnccc12)c1ccccc1Sc1ccc2c(/C=C/c3ccccn3)n[nH]c2c1`, the “% inhibition” value stood at 1%.

As to `O=C(Nc1ccc(Cl)c(Cl)c1)c1ccccc1Sc1ccc2c(/C=C/c3ccccn3)n[nH]c2c1`, the “% inhibition” value worked out at 8%. As to `O=C(Nc1ccc(Cl)cc1)c1ccccc1Sc1ccc2c(/C=C/c3ccccn3)n[nH]c2c1`, the “% inhibition” value is reported as −12%. Regarding `O=C(Nc1ccc(O)cc1)c1ccccc1Sc1ccc2c(/C=C/c3ccccn3)n[nH]c2c1`, the “% inhibition” value was found to be 52%. With `CS(=O)(=O)c1ccc(NC(=O)c2ccccc2Sc2ccc3c(/C=C/c4ccccn4)n[nH]c3c2)cc1` the figure was 19%; with `O=C(Nc1ccccc1O)c1ccccc1Sc1ccc2c(/C=C/c3ccccn3)n[nH]c2c1`, 13%; with `O=C(Nc1ccccc1-n1cccc1)c1ccccc1Sc1ccc2c(/C=C/c3ccccn3)n[nH]c2c1`, −7%. For the compound `O=C(Nc1ccc2c(O)cccc2c1)c1ccccc1Sc1ccc2c(/C=C/c3ccccn3)n[nH]c2c1`, the “% inhibition” value is reported as −26%.

Regarding `O=C(Nc1ccc2cn[nH]c2c1)c1ccccc1Sc1ccc2c(/C=C/c3ccccn3)n[nH]c2c1`, the “% inhibition” value is reported as 7%.

For the compound `O=C(Nc1ccc2c(c1)OCO2)c1ccccc1Sc1ccc2c(/C=C/c3ccccn3)n[nH]c2c1`, the “% inhibition” value amounted to 9%.

As for `O=C(Nc1cc2ccccc2cc1O)c1ccccc1Sc1ccc2c(/C=C/c3ccccn3)n[nH]c2c1`, the “% inhibition” value stood at 18%. Regarding `COc1cc(NC(=O)c2ccccc2Sc2ccc3c(/C=C/c4ccccn4)n[nH]c3c2)cc(C(F)(F)F)c1`, the “% inhibition” value is 10%. With `O=C(Nc1cccc2ncccc12)c1ccccc1Sc1ccc2c(/C=C/c3ccccn3)n[nH]c2c1` the figure was −37%; with `O=C(Nc1ccc2[nH]ccc2c1)c1ccccc1Sc1ccc2c(/C=C/c3ccccn3)n[nH]c2c1`, 43%; with `O=C(Nc1cccc(OC(F)(F)F)c1)c1ccccc1Sc1ccc2c(/C=C/c3ccccn3)n[nH]c2c1`, 5%. For the compound `O=C(Nc1ccc(C2CCCCC2)cc1)c1ccccc1Sc1ccc2c(/C=C/c3ccccn3)n[nH]c2c1`, the “% inhibition” value is given as 1%. Take `O=C(Nc1ccc(C(F)(F)F)cc1)c1ccccc1Sc1ccc2c(/C=C/c3ccccn3)n[nH]c2c1`: the “% inhibition” value is on record as −3%. For `N#CCc1ccc(NC(=O)c2ccccc2Sc2ccc3c(/C=C/c4ccccn4)n[nH]c3c2)cc1`, the “% inhibition” value is −13%.

As for `CC(C)(C)c1ccc(CNC(=O)c2ccccc2Sc2ccc3c(/C=C/c4ccccn4)n[nH]c3c2)cc1`, the “% inhibition” value is given as −1%. Turning to `CC(C)(C)c1ccc(NC(=O)c2ccccc2Sc2ccc3c(/C=C/c4ccccn4)n[nH]c3c2)cc1`, the “% inhibition” value is −1%. `CCOc1ccc(NC(=O)c2ccccc2Sc2ccc3c(/C=C/c4ccccn4)n[nH]c3c2)cc1`: the “% inhibition” value is listed as 16%. The figure for `O=C(Nc1nccc2ccccc12)c1ccccc1Sc1ccc2c(/C=C/c3ccccn3)n[nH]c2c1` is 4%; for `O=C(Nc1ccc(Cl)cn1)c1ccccc1Sc1ccc2c(/C=C/c3ccccn3)n[nH]c2c1` it is −23%. As to `Cc1ccc(NC(=O)c2ccccc2Sc2ccc3c(/C=C/c4ccccn4)n[nH]c3c2)nc1`, the “% inhibition” value is listed as −20%. As for `O=C(Nc1nc2ccccc2s1)c1ccccc1Sc1ccc2c(/C=C/c3ccccn3)n[nH]c2c1`, the “% inhibition” value was −15%.

Take `Cc1cccc(NC(=O)c2ccccc2Sc2ccc3c(/C=C/c4ccccn4)n[nH]c3c2)n1`: the “% inhibition” value turned out to be 10%. `Cc1cccnc1NC(=O)c1ccccc1Sc1ccc2c(/C=C/c3ccccn3)n[nH]c2c1`: the “% inhibition” value was −18%.

With `O=C(NC1CCCc2ccccc21)c1ccccc1Sc1ccc2c(/C=C/c3ccccn3)n[nH]c2c1` (stereo not shown), the “% inhibition” value was found to be 1%. `COC1C=CC(CNC(=O)c2ccccc2Sc2ccc3c(/C=C/c4ccccn4)n[nH]c3c2)(OC)O1` (stereo not shown): the “% inhibition” value turned out to be 0%. For `O=C(Nc1cc(-c2cccs2)n[nH]1)c1ccccc1Sc1ccc2c(/C=C/c3ccccn3)n[nH]c2c1`, the “% inhibition” value was −11%. Consider `O=C(Nc1ccc2[nH]ncc2c1)c1ccccc1Sc1ccc2c(/C=C/c3ccccn3)n[nH]c2c1`, for which the “% inhibition” value was 22%. The figure for `O=C(NC1(CO)CCCC1)c1ccccc1Sc1ccc2c(/C=C/c3ccccn3)n[nH]c2c1` is −5%; for `CC(C)[C@@H](CO)NC(=O)c1ccccc1Sc1ccc2c(/C=C/c3ccccn3)n[nH]c2c1` it is −19%. On to `O=C(Nc1ccc2[nH]nnc2c1)c1ccccc1Sc1ccc2c(/C=C/c3ccccn3)n[nH]c2c1`, for which the “% inhibition” value was −7%. `O=C(NC[C@H](O)c1ccccc1)c1ccccc1Sc1ccc2c(/C=C/c3ccccn3)n[nH]c2c1`: the “% inhibition” value is reported as −34%. Regarding `O=C(NCC1COc2ccccc2O1)c1ccccc1Sc1ccc2c(/C=C/c3ccccn3)n[nH]c2c1` (stereo not shown), the “% inhibition” value is −13%. With `COc1ccc(CNC(=O)c2ccccc2Sc2ccc3c(/C=C/c4ccccn4)n[nH]c3c2)c(OC)c1` the figure was 13%; with `O=C(Nc1ccc(Cl)cc1CO)c1ccccc1Sc1ccc2c(/C=C/c3ccccn3)n[nH]c2c1`, 48%. `O=C(NC[C@@H]1CCCO1)c1ccccc1Sc1ccc2c(/C=C/c3ccccn3)n[nH]c2c1`: the “% inhibition” value was −11%.
